From patent publication US7989467B2, “Use of indole-derived compounds for the preparation of a medicament that can be used to treat diseases related to the splicing process” (Centre National de la Recherche Scientifique (CNRS), priority 2003, dated 2011)
Each block holds one compound with its values, some of them ahead of it.

Tests used:
[1] = tested on: M3S1 pre-messenger; experiment: In vitro splicing of M3S1 pre-messenger RNA (dependent on ESE recognized by SR ASF/SF2 protein); format: biochemical, human; conditions: for M3S1 splicing inhibition: 10 μM, FIG. 2; for effect on M3S1 splicing: concentration not given
Description: The compounds presented in Tables 1 and 2 below were tested in a concentration range of 1 μM, 10 μM and 100 μM, and were selected initially on the basis of their capacity to inhibit, in vitro, the splicing of two types of model pre-mRNAs.
The second type of M3S1 pre-messenger is derived from the human […] gene (Labourier, E. et al. (1999), Antagonism between RSF1 and SR proteins for both splice-site recognition in vitro and Drosophila development. Genes Dev. 13, 740-753) and its splicing is strictly dependent on an auxiliary ESE sequence recognized specifically by the SR ASF/SF2 protein. Conditions for the transcription, splicing and analysis of this pre-messenger's products are identical to those used for the MINX pre-messenger.

[2] = tested on: M3S1 transcript splicing complexes; experiment: In vitro splicing-complex formation on M3S1 transcript; format: biochemical, human; conditions: 50 μM; 30 minutes of incubation; FIG. 3
Description: The activity of the products has also been tested in splicing-complex formation reactions in vitro (FIG. 3) as described in Pilch B. et al. (Specific inhibition of serine- and arginine-rich splicing factors, phosphorylation, spliceosome assembly, and splicing by the antitumor drug NB-506. Cancer Res. 2001. 61, 6876-6884).
M3S1 transcript splicing reactions in the presence of various compounds according to the invention performed under the same conditions as those described for FIG. 1 are stopped after 30 minutes of incubation by the addition of heparin and glycerol at a final concentration of 1 mg/ml and 15%, respectively.

[3] = tested on: GFP-ESE transgene; experiment: ESE-dependent splicing of GFP-ESE transgene mRNA in HeLa cells (RT-PCR); format: cell-based, human; conditions: 1 μM per FIG. 5 legend
Description: In order to test the efficiency of indole derivatives ex vivo, […] HeLa cell lines were established stably expressing a transgene corresponding to GFP whose sequence was interrupted by an ESE sequence flanked by two identical introns of the human […] gene described in Example 1 (see FIG. 5A).
To detect the messenger RNAs arising from the splicing of this gene, the RT-PCR technique was used with primers in the GFP sequence on each side of the ESE and the PCR products were analyzed on agarose gel.
In almost all the lines established, a single fragment of 250 base pairs (bp) was amplified by PCR (FIG. 5A, lanes 2 and 3) and it corresponds to an RNA messenger which included the ESE between the two GFP sequences.

[4] = tested on: M3S1-PDH pre-messenger RNA; experiment: Splicing of M3S1-PDH pre-messenger RNA (pyruvate dehydrogenase E1α subunit, mutated intron 7); format: biochemical, human; conditions: for M3S1-PDH splicing: FIG. 4B
Description: In this substrate the sequences corresponding to exon 7-intron 7-exon 8 of the gene coding for the pyruvate dehydrogenase E1α subunit (PDH E1α) are inserted downstream from the M3S1 sequence (M3S1-PDH, see FIG. 4A). Intron 7 of this transcript contains a point mutation which creates a high affinity SR hSC35 protein binding site. This mutation, which causes the loss of PDH E1α expression in patients suffering from Leigh syndrome (an encephalopathy in children), leads to the appearance of a cryptic site 46 nucleotides downstream from the authentic 5′ splicing site (FIG. 4A). This substrate, likely to give rise to two products, one with and one without the 46 nucleotides of PDH intron 7, is ideal for determining the specificity of the compounds with respect to the various ESE sequences present within the same transcript.
Compound C7 is thus an excellent inhibitor of defective splicing that is dependent on hSC35 ESE, but not on authentic splicing. This compound can thus be envisaged for treating patients suffering from this encephalopathy.

[5] = biological target: T1, SRp55 (Homo sapiens, UniProt Q13247); experiment: In vitro splicing results, Table 3: SRp55; format: biochemical; conditions: summary of Table 3
T1 sequence (Q13247 1-344): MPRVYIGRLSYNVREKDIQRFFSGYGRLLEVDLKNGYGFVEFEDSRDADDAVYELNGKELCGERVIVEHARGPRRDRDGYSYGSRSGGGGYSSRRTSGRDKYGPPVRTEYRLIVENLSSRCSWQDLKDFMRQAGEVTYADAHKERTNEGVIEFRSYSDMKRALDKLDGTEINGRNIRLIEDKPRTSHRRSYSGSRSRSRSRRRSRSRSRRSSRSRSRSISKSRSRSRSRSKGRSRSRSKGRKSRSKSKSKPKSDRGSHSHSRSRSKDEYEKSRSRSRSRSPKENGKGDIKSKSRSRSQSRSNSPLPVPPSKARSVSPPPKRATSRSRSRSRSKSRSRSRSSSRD

[6] = tested on: HIV; experiment: Inhibition of HIV multiplication in PMA-stimulated U1 cells (RT-PCR of viral transcripts); format: cell-based; conditions: 2.5 μM; 24 h; U1 cells treated with 50 nM PMA; FIG. 6
Description: To this end, human […] cell line U1, which is chronically infected by HIV (Folks et al., 1988. Characterization of a promonocyte clone chronically infected with HIV and inducible by 13-phorbol-12-myristate acetate. J. Immunol., 140: 1117-1122) and which produces large quantities of virus after stimulation by PMA (phorbol myristate acetate), was used. As a result, this cell line constitutes an excellent model to mimic the transition between the latency phase and the viral production phase observed in patients infected by HIV.
The results of this experiment are presented in FIG. 6 in which U1 cells (5×10^5) were treated with 50 nM of PMA in the absence (FIG. 6, lane 1) or in the presence of 2.5 μM of compounds C47, C97, C58, C57, C92, C91, C90, C83, C73, C34, C51, C45, C13, C10, C44, C6, C7, C41, C50, C32, C2, C1, C29, C35 and C99 (FIG. 6, lanes 3-27, respectively). After 24 h of treatment, the virus's transcripts were amplified by RT-PCR using specific VIH, BSS and SJ4.7A primers (Jacquenet et al., 2001, A second exon splicing silencer within human immunodeficiency virus type 1 tat exon 2 represses splicing of Tat mRNA and binds protein hnRNP. H. J. Biol. Chem. 276: 40464-75) and a radioactive tracer (α-32P) CTP.

Structure (SMILES): COc1ccc2[nH]c3c(C)c4ccnc(NCCCN5CCN(CCCN)CC5)c4cc3c2c1 [C14]
M3S1 splicing inhibition [1]: M3S1 splicing inhibition | inhibition of the formation of splicing complexes A and B on M3S1 [2]: inhibition of the formation of splicing complexes A and B | splicing profile of the GFP-ESE transgene (RT-PCR fragment without ESE) [3]: revealed a fragment of 194 bp

Structure (SMILES): CCN(CC)CCC(C)Nc1nccc2c(C)c3c(cc12)c1cnccc1n3C (centres unmarked) [C28, N-3-(5,6-dimethyl-5H-pyrido[3′,4′:4,5]pyrrolo[2,3-g]isoquinolin-10-yl)-N,N-1-diethyl-butane-1,3-diamine]
splicing profile of the GFP-ESE transgene (RT-PCR fragment without ESE) [3]: revealed a fragment of 194 bp

M3S1-PDH splicing [4]: has no effect
Structure (SMILES): CC(=O)Oc1nccc2c(C)c3[nH]c4ccc(O)cc4c3cc12 [C4, 9-hydroxy-5-methyl-6H-pyrido[4,3-b]carbazol-1-yl acetic acid ester]
effect on M3S1 splicing [1]: inactive on M3S1

Structure (SMILES): CCN(CC)CCCNc1ncc(C)c2c1c1ccc3ccccc3c1n2C [C78, N′-(10,11-dimethyl-11H-benzo[g]pyrido[4,3-b]indol-7-yl)-N,N-diethyl-propane-1,3-diamine]
inhibit the activity of the SRp55 protein specifically [5]: inhibit the activity of the SRp55 protein specifically

Structure (SMILES): COc1ccc2c(ccc3[nH]c4c(C)cnc(NCCCCCCN)c4c32)c1 [C95, N-(3-methoxy-8-methyl-7H-benzo[e]pyrido[4,3-b]indol-11-yl)-hexane-1,6-diamine]
inhibit the activity of the SRp55 protein specifically [5]: inhibit the activity of the SRp55 protein specifically

Structure (SMILES): Cc1c2ccnc(NCCC(C)C)c2c(C)c2c1[nH]c1ccc(O)cc12 [C19, 5,11-dimethyl-1-(3-methyl-butylamino)-6H-pyrido[4,3-b]carbazol-9-ol]
inhibit the activity of the SRp55 protein specifically [5]: inhibit the activity of the SRp55 protein specifically

Structure (SMILES): COc1ccc2[nH]c3c(C)c4ccnc(NCCN5CCCC5)c4cc3c2c1 [C42, (9-methoxy-5-methyl-6H-pyrido[4,3-b]carbazol-1-yl)-(2-pyrrolidin-1-yl-ethyl)-amine]
inhibit the activity of the SRp55 protein specifically [5]: inhibit the activity of the SRp55 protein specifically

RNA species from normal PDH splicing ([4]; FIG. 4B lane 4): has no effect | formation of RNA species arising from PDH splicing that include the 46 nucleotides of intron 7 (defective splicing dependent on hSC35 ESE) ([4]; FIG. 4B lane 4): blocks the formation
Structure (SMILES): COc1ccc2[nH]c3c(C)c4ccncc4c(NCCCN(C)C)c3c2c1 [C7, N′(9-methoxy-5-methyl-6H-pyrido[4,3-b]carbazol-11-yl)-N,N-dimethyl-propane-1,3-diamine]
effect on M3S1 splicing [1]: do not modify M3S1 splicing

M3S1-PDH splicing [4]: Inhibition of M3S1-PDH
Structure (SMILES): CCN(CC)CCCNc1nccc2c(C)c3[nH]c4ccc(OC)cc4c3cc12 [C8, N,N-diethyl-N′-(9-methoxy-5-methyl-6H-pyrido[4,3-b]carbazol-1-yl)-propane-1,3-diamine]

Structure (SMILES): Cc1c2ccnc(Cl)c2cc2c3cn(C)ccc-3nc12 [C3, 10-chloro-2,6-dimethyl-2H-pyrido[3′,4′:4,5]pyrrolo[2,3-g]isoquinoline]
M3S1 splicing inhibition [1]: M3S1 splicing inhibition | inhibition of the formation of splicing complexes A and B on M3S1 [2]: inhibition of the formation of splicing complexes A and B

Structure (SMILES): CCN(CC)CCNc1nccc2c(C)c3c(cc12)c1cc(OC)ccc1n3C [C50, N,N-diethyl-N′-(9-methoxy-5,6-dimethyl-6H-pyrido[4,3-b]carbazol-1-yl)-ethane-1,2-diamine]
inhibit the activity of the SRp55 protein specifically [5]: inhibit the activity of the SRp55 protein specifically | inhibition of HIV multiplication (amplification of viral transcripts) [6]: excellent inhibitors of HIV multiplication

Structure (SMILES): CNCCCNc1ncc(C)c2[nH]c3ccc4cc(OC)ccc4c3c12 [C57, N-(3-methoxy-8-methyl-7H-benzo[e]pyrido[4,3-b]indol-11-yl)-N′-methyl-propane-1,3-diamine]
inhibit the activity of the SRp55 protein specifically [5]: inhibit the activity of the SRp55 protein specifically | inhibition of HIV multiplication (amplification of viral transcripts) [6]: excellent inhibitors of HIV multiplication
